Measurements taken from US10336739B2, “4-hydroxy-3-(heteroaryl)pyridine-2-one APJ agonists” (BRISTOL-MYERS SQUIBB COMPANY, priority 2015, dated 2019).
Where two headings read alike, the source gives them in different places.

Target: human APJ receptor (Homo sapiens (Human), UniProt P35414)
Assay: Intracellular cAMP accumulation assay (APJ hcAMP, HTRF)
Assay type: cell-based
Conditions: HEK293 cells stably expressing human APJ receptor, inhibition of forskolin-mediated cAMP production
Method in brief: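 cAMP inhibition was quantified by HTRF against a cAMP standard curve, with EC50 fitted to a variable-slope sigmoidal curve. Compounds acted on 5,000 APJ-stable HEK293 cells for 30 minutes at room temperature alongside 2 μM forskolin and […] IBMX. Detection reagents were incubated 60 min.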

[1] = read-out: hAPJ cAMP EC50 Potency range
[2] = read-out: Human APJ cAMP EC50 Potency range
[3] = read-out: hAPJ cAMP EC50 (nM) Potency range

human APJ receptor, sequence (P35414 whole entry): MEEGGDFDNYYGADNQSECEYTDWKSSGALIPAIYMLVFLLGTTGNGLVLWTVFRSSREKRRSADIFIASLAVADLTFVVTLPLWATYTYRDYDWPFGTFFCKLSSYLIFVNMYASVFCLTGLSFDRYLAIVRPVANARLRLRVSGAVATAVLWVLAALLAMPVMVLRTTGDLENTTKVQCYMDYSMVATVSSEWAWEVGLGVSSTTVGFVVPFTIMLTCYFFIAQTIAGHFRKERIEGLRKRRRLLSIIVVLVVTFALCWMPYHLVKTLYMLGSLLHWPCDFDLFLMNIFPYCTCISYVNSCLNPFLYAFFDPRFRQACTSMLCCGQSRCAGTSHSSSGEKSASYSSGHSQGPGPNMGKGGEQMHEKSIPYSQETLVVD

Row | EC50 [1] [nM] | SMILES | other results
1 | 0.01 to 10 | CCOCc1nc(O)c(-c2nnc(Cc3ccc(Cl)c(F)c3)o2)c(O)c1-c1c(OC)cccc1OC [Example 122, 3-{5-[(4-chloro-3-fluorophenyl)methyl]-1,3,4-oxadiazol-2-yl}-5-(2,6-dimethoxyphenyl)-6-(ethoxymethyl) pyridine-2,4-diol] | –
2 | – | CCOCc1nc(O)c(-c2nnc(Cc3noc4ccccc34)s2)c(O)c1-c1c(OC)cccc1OC [Example 231, 3-{5-[(1,2-benzoxazol-3-yl)methyl]-1,3,4-thiadiazol-2-yl}-5-(2,6-dimethoxyphenyl)-6-(ethoxymethyl)pyridine-2,4-diol] | EC50 [2]: 10 to 100 nM
3 | – | CCCCc1nc(O)c(-c2nnc(CC(=O)NCc3ccc(Cl)cc3)o2)c(O)c1-c1c(OC)cccc1OC [Example 266, 2-{5-[6-butyl-5-(2,6-dimethoxyphenyl)-2,4-dihydroxy-pyridin-3-yl]-1,3,4-oxadiazol-2-yl}-N-[(4-chlorophenyl)methyl]acetamide] | EC50 [3]: 0.01 to 10 nM
4 | 0.01 to 10 | CCOCc1nc(O)c(-c2nnc(CN3CCCC3=O)o2)c(O)c1-c1c(OC)cccc1OC [Example 112, 1-({5-[5-(2,6-dimethoxyphenyl)-6-(ethoxymethyl)-2,4-dihydroxypyridin-3-yl]-1,3,4-oxadiazol-2-yl}methyl) pyrrolidin-2-one] | –
5 | 0.01 to 10 | CCCCc1nc(O)c(-c2nnc(CC(=O)NCCC)o2)c(O)c1-c1c(OC)cccc1OC [Example 189, 2-{5-[6-butyl-5-(2,6-dimethoxyphenyl)-2,4-dihydroxypyridin-3-yl]-1,3,4-oxadiazol-2-yl}-N-propylacetamide] | –
6 | 0.01 to 10 | CCCCc1nc(O)c(-c2nnc(Cc3nnc(-c4ccccc4Cl)o3)o2)c(O)c1-c1c(OC)cccc1OC [Example 208, 6-butyl-3-(5-{[5-(2-chlorophenyl)-1,3,4-oxadiazol-2-yl]methyl}-1,3,4-oxadiazol-2-yl)-5-(2,6-dimethoxyphenyl) pyridine-2,4-diol] | –
7 | – | CCNCc1[nH]c(=O)c(-c2nnc(Cc3ccc(Cl)cn3)o2)c(O)c1-c1c(OC)cccc1OC [Example 230, 3-{5-[(5-chloropyridin-2-yl)methyl]-1,3,4-oxadiazol-2-yl}-5-(2,6-dimethoxyphenyl)-6-[(ethylamino)methyl]pyridine-2,4-diol] | EC50 [2]: 0.01 to 10 nM
8 | 0.01 to 10 | CCCCc1nc(O)c(-c2nnc(CC(=O)NC(C)C)o2)c(O)c1-c1c(OC)cccc1OC [Example 181, 2-{5-[6-butyl-5-(2,6-dimethoxyphenyl)-2,4-dihydroxypyridin-3-yl]-1,3,4-oxadiazol-2-yl}-N-(propan-2-yl)acetamide] | –
9 | – | CCOCc1nc(O)c(-c2nnc(Cc3ccc(Cl)cc3)o2)c(O)c1-c1ccccc1OC [Example 249, 3-{5-[(4-chlorophenyl)methyl]-1,3,4-oxadiazol-2-yl}-6-(ethoxymethyl)-5-(2-methoxyphenyl) pyridine-2,4-diol] | EC50 [3]: 0.01 to 10 nM
10 | – | CCCCc1nc(O)c(-c2nnc(CNC(=O)c3ccccc3)o2)c(O)c1-c1cc(OC)ccc1OC [Example 246, N-({5-[6-butyl-5-(2,5-dimethoxyphenyl)-2,4-dihydroxy-pyridin-3-yl]-1,3,4-oxadiazol-2-yl}methyl) benzamide] | EC50 [3]: 0.01 to 10 nM
11 | 0.01 to 10 | CCCCc1nc(O)c(-c2nnc(Cc3ccc(Cl)cc3)o2)c(O)c1-c1c(OC)cccc1OC [Example 8, 6-butyl-3-{5-[(4-chlorophenyl)methyl]-1,3,4-oxadiazol-2-yl}-5-(2,6-dimethoxyphenyl) pyridine-2,4-diol] | –
12 | 0.01 to 10 | CCCCc1nc(O)c(-c2nnc(CC3CCCCC3)o2)c(O)c1-c1c(OC)cccc1OC [Example 67, 6-butyl-3-[5-(cyclohexylmethyl)-1,3,4-oxadiazol-2-yl]-5-(2,6-dimethoxyphenyl) pyridine-2,4-diol] | –
13 | 0.01 to 10 | CCCCc1nc(O)c(-c2nnc(C(C)(C)c3ccccc3)o2)c(O)c1-c1c(OC)cccc1OC [Example 15, 6-butyl-5-(2,6-dimethoxyphenyl)-3-[5-(2-phenylpropan-2-yl)-1,3,4-oxadiazol-2-yl]pyridine-2,4-diol] | –
14 | 0.01 to 10 | CCOCc1nc(O)c(-c2nnc(Cc3ccc(Cl)nc3)o2)c(O)c1-c1c(OC)cc(F)cc1OC [Example 216, 3-{5-[(6-chloropyridin-3-yl)methyl]-1,3,4-oxadiazol-2-yl}-6-(ethoxymethyl)-5-(4-fluoro-2,6-dimethoxyphenyl) pyridine-2,4-diol] | –
15 | 0.01 to 10 | CCCCc1nc(O)c(-c2nnc(C(C)c3ccc(Cl)cc3)o2)c(O)c1-c1c(OC)cccc1OC (stereo not shown) [Example 40, 6-butyl-3-{5-[1-(4-chlorophenyl)ethyl]-1,3,4-oxadiazol-2-yl}-5-(2,6-dimethoxyphenyl) pyridine-2,4-diol] | –
16 | 0.01 to 10 | CCCCc1nc(O)c(-c2nnc(Cc3ccc(F)cc3)o2)c(O)c1-c1c(OC)cccc1OC [Example 32, 6-butyl-5-(2,6-dimethoxyphenyl)-3-{5-[(4-fluorophenyl)methyl]-1,3,4-oxadiazol-2-yl}pyridine-2,4-diol] | –

Row | EC50 [1] [nM] | SMILES | other results
17 | – | C#CCNC(=O)Cc1nnc(-c2c(O)nc(CCCC)c(-c3c(OC)cccc3OC)c2O)o1 [Example 262, 2-{5-[6-butyl-5-(2,6-dimethoxyphenyl)-2,4-dihydroxy-pyridin-3-yl]-1,3,4-oxadiazol-2-yl}-N-(prop-2-yn-1-yl)acetamide] | EC50 [3]: 0.01 to 10 nM
18 | 10 to 100 | CCCCc1nc(O)c(-c2nnc(Cc3nnc(-c4cccc(Cl)c4)o3)o2)c(O)c1-c1c(OC)cccc1OC [Example 210, 6-butyl-3-(5-{[5-(3-chlorophenyl)-1,3,4-oxadiazol-2-yl]methyl}-1,3,4-oxadiazol-2-yl)-5-(2,6-dimethoxyphenyl) pyridine-2,4-diol] | –
19 | – | COCCOCc1nc(O)c(-c2nnc(Cc3noc4ccccc34)o2)c(O)c1-c1c(OC)cccc1OC [Example 242, 3-{5-[(1,2-benzoxazol-3-yl)methyl]-1,3,4-oxadiazol-2-yl}-5-(2,6-dimethoxyphenyl)-6-[(2-methoxyethoxy)methyl]pyridine-2,4-diol] | EC50 [3]: 10 to 100 nM
20 | – | CCCCc1nc(O)c(-c2nnc(CNC(=O)c3ccccc3)o2)c(O)c1-c1cccc(OC)c1OC [Example 250, N-({5-[6-butyl-5-{2,3-dimethoxyphenyl)-2,4-dihydroxy-pyridin-3-yl]-1,3,4-oxadiazol-2-yl}methyl) benzamide] | EC50 [3]: 0.01 to 10 nM
21 | 0.01 to 10 | CCCCc1nc(O)c(-c2nnc(CCc3ccc(F)c(F)c3)o2)c(O)c1-c1c(OC)cccc1OC [Example 74, 6-butyl-3-{5-[2-(3,4-difluorophenyl)ethyl]-1,3,4-oxadiazol-2-yl}-5-(2,6-dimethoxyphenyl) pyridine-2,4-diol] | –
22 | 0.01 to 10 | CCCCc1nc(O)c(-c2nnc(Cc3nc(Cc4ccccc4)no3)o2)c(O)c1-c1c(OC)cccc1OC [Example 108, 3-{5-[(3-benzyl-1,2,4-oxadiazol-5-yl)methyl]-1,3,4-oxadiazol-2-yl}-6-butyl-5-(2,6-dimethoxyphenyl) pyridine-2,4-diol] | –
23 | 0.01 to 10 | CCCCc1nc(O)c(-c2nnc(CN3CCOCC3=O)o2)c(O)c1-c1c(OC)cccc1OC [Example 117, 4-({5-[6-butyl-5-(2,6-dimethoxyphenyl)-2,4-dihydroxypyridin-3-yl]-1,3,4-oxadiazol-2-yl}methyl) morpholin-3-one] | –
24 | 0.01 to 10 | CCCCc1nc(O)c(-c2nnc(Cc3ccc(Cl)cc3F)o2)c(O)c1-c1c(OC)cccc1OC [Example 103, 6-butyl-3-{5-[(4-chloro-2-fluorophenyl)methyl]-1,3,4-oxadiazol-2-yl}-5-(2,6-dimethoxyphenyl) pyridine-2,4-diol] | –
25 | 0.01 to 10 | CCCCc1nc(O)c(-c2nnc(CCc3nc4ccccc4s3)o2)c(O)c1-c1c(OC)cccc1OC [Example 82, 3-{5-[2-(1,3-benzothiazol-2-yl)ethyl]-1,3,4-oxadiazol-2-yl}-6-butyl-5-(2,6-dimethoxyphenyl) pyridine-2,4-diol] | –
26 | 10 to 100 | CCCCc1nc(O)c(-c2nnc(CN3CCCCC3)o2)c(O)c1-c1c(OC)cccc1OC [Example 100, 6-butyl-5-(2,6-dimethoxyphenyl)-3-[5-(piperidin-1-ylmethyl)-1,3,4-oxadiazol-2-yl]pyridine-2,4-diol] | –
27 | 0.01 to 10 | CCCCc1nc(O)c(-c2nnc(Cc3ccc(F)c(F)c3)o2)c(O)c1-c1c(OC)cccc1OC [Example 38, 6-butyl-3-{5-[(3,4-difluorophenyl)methyl]-1,3,4-oxadiazol-2-yl}-5-(2,6-dimethoxyphenyl) pyridine-2,4-diol] | –
28 | 10 to 100 | CCOCc1nc(O)c(-c2nnc(CN3CCCC3=O)o2)c(O)c1-c1c(OC)cc(F)cc1OC [Example 215, 1-({5-[6-(ethoxymethyl)-5-(4-fluoro-2,6-dimethoxyphenyl)-2,4-dihydroxypyridin-3-yl]-1,3,4-oxadiazol-2-yl}methyl) pyrrolidin-2-one] | –
29 | 10 to 100 | CCCCc1nc(O)c(-c2nnc(COc3ccc(Cl)cc3)o2)c(O)c1-c1c(OC)cccc1OC [Example 53, 6-butyl-3-[5-(4-chlorophenoxy-methyl)-1,3,4-oxadiazol-2-yl]-5-(2,6-dimethoxyphenyl) pyridine-2,4-diol] | –
30 | – | CCCCc1nc(O)c(-c2nnc(CC(=O)N(C)CCc3ccccc3)o2)c(O)c1-c1c(OC)cccc1OC [Example 261, 2-{5-[6-butyl-5-(2,6-dimethoxyphenyl)-2,4-dihydroxy-pyridin-3-yl]-1,3,4-oxadiazol-2-yl}-N-methyl-N-(2-phenylethyl) acetamide] | EC50 [3]: 0.01 to 10 nM
31 | – | CCCCc1nc(O)c(-c2nnc(CC(=O)Nc3cccnc3)o2)c(O)c1-c1c(OC)cccc1OC [Example 252, 2-{5-[6-butyl-5-(2,6-dimethoxyphenyl)-2,4-dihydroxy-pyridin-3-yl]-1,3,4-oxadiazol-2-yl}-N-(pyridin-3-yl)acetamide] | EC50 [3]: 0.01 to 10 nM
